Source: the NIST ThermoML archive (doi:10.1016/j.fluid.2008.06.022)
Numbers after ± are expanded uncertainties.

Conditions: Liquid

CCCOCC(C)O (centres undefined) [1-propoxy-2-propanol]
Conditions	vapor or sublimation pressure [kPa]
298.15 K	0.341 ± 0.016
303.15 K	0.481 ± 0.016
308.15 K	0.672 ± 0.016
313.15 K	0.937 ± 0.016
318.15 K	1.271 ± 0.018
323.15 K	1.707 ± 0.02
328.15 K	2.256 ± 0.023
333.15 K	2.967 ± 0.028
338.15 K	3.839 ± 0.034
343.15 K	4.951 ± 0.043
348.15 K	6.29 ± 0.053
353.15 K	7.963 ± 0.066
358.15 K	9.95 ± 0.082
363.15 K	12.38 ± 0.1
368.15 K	15.27 ± 0.12
373.15 K	18.7 ± 0.15
378.15 K	22.65 ± 0.18
383.15 K	27.42 ± 0.22
388.15 K	32.8 ± 0.27
393.15 K	39.18 ± 0.32
398.15 K	46.38 ± 0.38
403.15 K	54.75 ± 0.44
408.15 K	64.1 ± 0.52
413.15 K	74.98 ± 0.61
